According to patent publication US10487078B2, “Compositions and methods of targeting mutant K-RAS” (NantBio, Inc., priority 2015, dated 2019):
Read-outs that look alike come from different tables or passages of the source.

Tests used:
Assay type in all cases: cell-based
[1] = system: Ras in BxPC-3 (K-Ras wild-type), Panc10.05 (K-Ras G12D mutant), Capan-2 (K-Ras G12V) cells; assay: G-LISA Ras inhibition in cancer cell lines (FIG. 2); details: 3.1 to 25 μM, 1 hour, then 100 ng/ml EGF 2 minutes
Description: To verify the results in specific cancer cell lines, cancer cell lines BxPC-3 (K-Ras wild-type), Panc10.05 (K-Ras G12D mutant), and Capan-2 (K-Ras G12V) were treated with 3.1 to 25 μM of Ras compound A0837 for 1 hour before stimulation with 100 ng/ml EGF for 2 minutes. Cells were washed once in ice-cold PBS, lysed in complete lysis buffer on ice, and processed by G-LISA according to Cytoskeleton protocol.

[2] = system: Akt phosphorylation in Panc10.05 (G12D) cells; assay: In-Cell Western Akt phosphorylation; details: EC50, one hour treatment; read-out: In-Cell Western Akt phosporylation Panc10.05 (G12D)
Description: (§1) In-cell phosphorylation assays for Erk and Akt were performed on various of the compounds and exemplary results are shown in Table 3 below using […] and Panc10.05 cell lines for G12D K-ras mutants.
(§2) Cells are seeded in complete medium into black sided, clear-bottom 384-well microplates at 3000 cells/[…]/well. Plates are returned to 37° C. CO2 incubator for 18 hr. Drug is made as 200× in DMSO and diluted into medium to 10×. To each well is added 4 ul 10× test article or controls, and plates are returned to the incubator. Final assay DMSO concentration is 0.5%. After one hour, cells are fixed in formaldehyde, rinsed & permeabilized with triton X-100, and blocked with BSA/Goat serum blocking solution. Primary phospho-Akt and phospho-ERK antibodies are added and plates are incubated overnight at 4° C. Plates are rinsed with Tween-20 wash buffer and secondary antibody (Goat anti-rabbit, Thermofisher) is added. After 2 hours, plates are rinsed in Tween-20 wash buffer, and then PBS. Plates are imaged on the Celigo (Nexcelom) and cellular fluorescence is quantitated. Full inhibition of phospho-Akt is achieved with 1 uM BEZ235 (Sellekchem), while full inhibition of phospho-ERK is achieved with 1 uM MEK Inhibitor II Calbiochem). EC50 values are calculated using Graphpad Prism.

[3] = system: Akt phosphorylation in Panc1 (G12D) cells; assay: In-Cell Western Akt phosphorylation; details: EC50, one hour treatment; read-out: In-Cell Western Akt phosporylation Panc1 (G12D)
Description: as §1, §2

[4] = system: pMEK and pErk in Panc10.05 (K-Ras G12D mutant) cells; assay: SDS-PAGE/blot detection of pMEK and pErk (FIG. 3); details: serum-starved, 3.1 to 25 μM, 1 hour, then 100 ng/ml EGF 5 minutes
Description: The effect of contemplated compounds on cell signaling was tested in wild type and K-ras G12D mutant cells as follows: Cancer cell lines BxPC-3 (K-Ras wild-type), and Panc10.05 (K-Ras G12D mutant) were serum-starved 0/N before treatment with 3.1 to 25 μM of Ras compound A0837 for 1 hour before stimulation with 100 ng/ml EGF for 5 minutes. Cells were washed once in ice-cold PBS, lysed in complete lysis buffer on ice, and processed by SDS-PAGE under reducing conditions for the detection of pMEK and pErk. Membranes were stripped and re-probed for total MEK/Erk.

K-Ras wild-type = K-Ras wild-type (Homo sapiens, UniProt P01116); assay: G-LISA Ras activation assay, 293H cells transfected with Ras wild-type, EGF-stimulated; details: 1 hour treatment, 100 ng/ml EGF
Chain of K-Ras wild-type (P01116 1-188 isoform P01116-2): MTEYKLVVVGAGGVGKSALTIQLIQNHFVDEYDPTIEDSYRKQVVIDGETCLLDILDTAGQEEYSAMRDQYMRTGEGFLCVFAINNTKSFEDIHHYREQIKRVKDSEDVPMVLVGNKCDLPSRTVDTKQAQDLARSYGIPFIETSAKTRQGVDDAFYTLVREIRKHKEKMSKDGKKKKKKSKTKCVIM
Description: (§3) 293H cells were seeded in 6-wells at 0.6×10^6 cells per well and transfected next day with 5 μg of Ras wild-type, or G12C, G12D or G12V mutant DNA plasmid vector using transfection reagent Lipofectamine 3000. Next day cells were treated with 3.125-50 μM of Ras compounds for 1 hour. Wild-type transfected cells were subsequently treated with 100 ng/ml EGF for 2 minutes. Cells were washed once in ice-cold PBS, lysed in complete lysis buffer on ice, and processed by G-LISA according to Cytoskeleton protocol.
(§4) In-cell selectivity of the compounds presented herein against a specific K-ras mutant form can also be tested as shown in the following exemplary experiment. 293H cells were seeded in 6-wells and transfected next day with 5 μg of Ras wild-type, or G12C, G12D or G12V mutant DNA plasmid vector. Next day cells were treated with 3.125-50 μM of Ras compounds for 1 hour. Wild-type transfected cells were subsequently treated with 100 ng/ml EGF for 2 minutes. Cells were washed once in ice-cold PBS, lysed in complete lysis buffer on ice, and processed by G-LISA according to Cytoskeleton protocol. FIG. 1 depicts exemplary results.
as §3, with “In still further experiments, the inventors tested selected compounds in a G-LISA assay to compare IC50 values for wild-type and various mutant K-Ras (G12D, G12V) using the following general protocol: 293H” for “293H”

K-ras G12V = K-ras G12V (Homo sapiens, UniProt P01116, G12V); assay: G-LISA Ras activation assay, 293H cells transfected with G12V mutant; details: 1 hour treatment
Chain of K-ras G12V (P01116 1-188 isoform P01116-2 G12V): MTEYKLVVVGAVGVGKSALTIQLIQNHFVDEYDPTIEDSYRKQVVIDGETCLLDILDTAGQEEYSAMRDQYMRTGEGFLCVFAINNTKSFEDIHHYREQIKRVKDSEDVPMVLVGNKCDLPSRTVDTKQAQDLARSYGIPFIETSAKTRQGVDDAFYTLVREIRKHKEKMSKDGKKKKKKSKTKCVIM
Description: as §3, §4
as §3, with “In still further experiments, the inventors tested selected compounds in a G-LISA assay to compare IC50 values for wild-type and various mutant K-Ras (G12D, G12V) using the following general protocol: 293H” for “293H”

K-ras G12D = K-ras G12D (Homo sapiens, UniProt P01116, G12D); assay: G-LISA Ras activation assay, 293H cells transfected with G12D mutant; details: for IC50: 1 hour treatment
Chain of K-ras G12D (P01116 1-188 isoform P01116-2 G12D): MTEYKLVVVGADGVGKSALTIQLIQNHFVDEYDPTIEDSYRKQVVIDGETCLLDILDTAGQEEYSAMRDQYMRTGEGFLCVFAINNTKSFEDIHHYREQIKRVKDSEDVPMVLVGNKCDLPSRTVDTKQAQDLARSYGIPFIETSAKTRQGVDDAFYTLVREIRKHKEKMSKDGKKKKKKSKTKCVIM
In short: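 293H cells transfected with WT, G12D or G12V K-Ras plasmid, next day exposed to 3.125–50 μM compound for 1 h. WT-transfected cells then stimulated with 100 ng/ml EGF for 2 min. Cells lysed on ice; active Ras measured by G-LISA.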

Cc1nc(C)c(C(=O)Nc2nc(-c3ccc4[nH]c(=O)[nH]c4c3)cs2)s1 [Compound 4562]
Selectivity of Ras inhibition in cancer cell lines, G-LISA (FIG. 2) [1]: clear selectivity towards K-ras mutant G12D
EC50 [2]: 22 µM
EC50 [3]: 8 µM
Signaling downstream of Ras (pMEK, pErk), mutant cell line (FIG. 3) [4]: inhibited signaling downstream of Ras in the mutant cell line
IC50 (K-Ras wild-type; Table 1, G-LISA, 293H transfected, read-out: IC50 (μM) Wild-type): 0.5 µM
IC50 (K-Ras wild-type; Table 5, IC50, 293H transfected, read-out: G-LISA (wild type)): 0.5 µM
IC50 (K-ras G12V; Table 1, G-LISA, 293H transfected, read-out: IC50 (μM) G12V): 38 µM
IC50 (K-ras G12V; Table 5, IC50, 293H transfected, read-out: G-LISA (G12V)): 38 µM
In-cell selectivity among K-ras forms, G-LISA (FIG. 1) (K-ras G12D; 293H transfected with wild-type, G12C, G12D or G12V, 3.125-50 μM, 1 hour): pronounced selectivity towards the G12D mutant form
IC50 for G12D compared to the wild type, G-LISA (FIG. 1) (K-ras G12D; 293H transfected, 3.125-50 μM, 1 hour): lower IC50 as compared to the wild type
IC50 (K-ras G12D; Table 1, G-LISA, 293H transfected, read-out: IC50 (μM) G12D): 10 µM
IC50 (K-ras G12D; Table 5, IC50, 293H transfected, read-out: G-LISA (G12D)): 7 to 13 µM
